Data as given in patent US9328112B2, “Tetracyclic CDK9 kinase inhibitors” (AbbVie Inc., priority 2014, dated 2016).
Where a name gives a salt, the structure may show the parent alone.

What was measured:
H929 cells = test: Cell viability assay (Cell TiterGlo); type: cell-based; conditions: Cell TiterGlo luminescence
Protocol: The cell viability assay was performed using H929 cells. Cells were seeded in 96-well plates at 10,000 cells/well and, after overnight incubation, treated with compounds in a dose response of 3-fold dilutions from 10 μM to 0.005 μM ([…], 0.1% final DMSO concentration). After 24 hours at 37° C., cell viability was measured using Cell TiterGlo reagent (Promega) with a luminescence reader.

CDK9/Cyclin T1 = CDK9/Cyclin T1 (Homo sapiens (Human), UniProt P50750); test: CDK9 enzyme assay (LANCE ULight TR-FRET kinase assay); type: biochemical; conditions: 1000 μM ATP, 100 nM ULight MBP, kinase reaction 1 hour
CDK9/Cyclin T1, sequence (P50750 whole entry): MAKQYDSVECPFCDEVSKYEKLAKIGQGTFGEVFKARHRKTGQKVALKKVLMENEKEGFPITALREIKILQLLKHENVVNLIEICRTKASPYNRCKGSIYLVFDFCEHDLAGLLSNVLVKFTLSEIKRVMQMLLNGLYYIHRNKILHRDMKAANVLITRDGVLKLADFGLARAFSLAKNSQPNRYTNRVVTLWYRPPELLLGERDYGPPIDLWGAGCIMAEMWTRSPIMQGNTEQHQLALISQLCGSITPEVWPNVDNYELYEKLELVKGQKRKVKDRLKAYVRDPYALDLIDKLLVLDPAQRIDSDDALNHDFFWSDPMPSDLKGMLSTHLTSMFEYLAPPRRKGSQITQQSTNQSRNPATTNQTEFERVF
CDK9/Cyclin T1, sequence (O60563 whole entry partner): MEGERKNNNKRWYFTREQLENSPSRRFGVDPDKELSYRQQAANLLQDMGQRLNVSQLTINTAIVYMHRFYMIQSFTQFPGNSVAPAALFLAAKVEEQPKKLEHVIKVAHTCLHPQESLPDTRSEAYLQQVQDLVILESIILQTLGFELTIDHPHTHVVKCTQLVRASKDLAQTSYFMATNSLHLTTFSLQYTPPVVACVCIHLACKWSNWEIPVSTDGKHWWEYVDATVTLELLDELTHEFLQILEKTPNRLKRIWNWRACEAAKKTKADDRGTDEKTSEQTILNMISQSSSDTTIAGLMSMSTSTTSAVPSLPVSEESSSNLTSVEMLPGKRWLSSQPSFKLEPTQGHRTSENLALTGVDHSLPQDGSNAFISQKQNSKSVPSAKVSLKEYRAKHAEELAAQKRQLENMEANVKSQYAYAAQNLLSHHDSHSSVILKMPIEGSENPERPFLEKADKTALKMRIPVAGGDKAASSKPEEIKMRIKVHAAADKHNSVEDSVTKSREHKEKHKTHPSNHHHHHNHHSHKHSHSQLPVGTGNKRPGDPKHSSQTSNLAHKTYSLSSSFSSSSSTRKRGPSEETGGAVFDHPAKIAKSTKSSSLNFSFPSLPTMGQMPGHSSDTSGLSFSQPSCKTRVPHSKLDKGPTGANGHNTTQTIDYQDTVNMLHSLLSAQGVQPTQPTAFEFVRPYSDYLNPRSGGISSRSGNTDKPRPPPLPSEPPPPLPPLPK
How it was run: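 Human CDK9/Cyclin T1 phosphorylating 100 nM ULight-MBP with 1000 μM ATP in HEPES/MgCl2 buffer, 1 h reaction. Stopped with 20 mM EDTA plus 0.5 nM Eu anti-phospho-MBP antibody, incubated 1 h, read by TR-FRET (ex 320 nm, em 615/665 nm).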

[1] = Homo sapiens, NCI-H929, 24 hours at 37° C.

Row | SMILES | IC50 (H929 cells; [1]) | IC50 (CDK9/Cyclin T1) | IC50 (H929 cells; 24 hours at 37° C.)
1 | CN1Cc2c(C3=CCN(CC(=O)N4CC[C@H](O)C4)CC3)[nH]c3nccc(c23)-c2cc(F)ccc21 [Example 42, 2-[4-(10-fluoro-7-methyl-6,7-dihydro-4H-3,4,7-triazadibenzo[cd,f]azulen-5-yl)-3,6-dihydropyridin-1(2H)-yl]-1-[(3S)-3-hydroxypyrrolidin-1-yl]ethanone] | 0.079 µM | 0.048 µM | –
2 | CN1Cc2c(C3=CCN([C@H]4CC[C@@H](C(=O)O)CC4)CC3)[nH]c3ncc(F)c(c23)-c2ccccc21 [Example 183, cis-4-[4-(1-fluoro-7-methyl-6,7-dihydro-4H-3,4,7-triazadibenzo[cd,f]azulen-5-yl)-3,6-dihydropyridin-1(2H)-yl]cyclohexanecarboxylic acid] | 0.014 µM | 0.08 µM | –
3 | O=C(O)CC1CCC(N2CC=C(c3[nH]c4nccc5c4c3COc3ccc(F)cc3-5)CC2)CC1 (stereo not shown) [Example 165, {4-[4-(10-fluoro-4,6-dihydro-7-oxa-3,4-diazadibenzo[cd,f]azulen-5-yl)-3,6-dihydropyridin-1(2H)-yl]cyclohexyl}acetic acid] | 0.97 µM | 0.39 µM | –
4 | CN1Cc2c(C3=C[C@H](CO)NCC3)[nH]c3nccc(c23)-c2cc(F)ccc21 [Example 154, [(2R)-4-(10-fluoro-7-methyl-6,7-dihydro-4H-3,4,7-triazadibenzo[cd,f]azulen-5-yl)-1,2,5,6-tetrahydropyridin-2-yl]methanol] | 0.056 µM | 0.028 µM | –
5 | CN1Cc2c(C3=C[C@H]4CC[C@@H](C3)N4CC(=O)N3CC(O)C3)[nH]c3nccc(c23)-c2cc(F)ccc21 [Example 80, 2-[(1R,5S)-3-(10-fluoro-7-methyl-6,7-dihydro-4H-3,4,7-triazadibenzo[cd,f]azulen-5-yl)-8-azabicyclo[3.2.1]oct-2-en-8-yl]-1-(3-hydroxyazetidin-1-yl)ethanone] | 0.19 µM | 0.097 µM | –
6 | CN1Cc2c(C3=CCN([C@H]4CC[C@H](CC(=O)O)CC4)CC3)[nH]c3ncc(F)c(c23)-c2ccccc21 [Example 180, {trans-4-[4-(1-fluoro-7-methyl-6,7-dihydro-4H-3,4,7-triazadibenzo[cd,f]azulen-5-yl)-3,6-dihydropyridin-1(2H)-yl]cyclohexyl}acetic acid] | 0.011 µM | 0.073 µM | –
7 | CN1CCc2c(C3=CCNCC3)[nH]c3nccc(c23)-c2cc(F)ccc21 [Example 127, 8-fluoro-5-methyl-2-(1,2,3,6-tetrahydropyridin-4-yl)-1,3,4,5-tetrahydro-1,5,12-triazabenzo[4,5]cycloocta[1,2,3-cd]indene] | – | 0.026 µM | 0.1 µM
8 | Fc1ccc2c(c1)-c1ccnc3[nH]c(C4=CCNCC4)c(c13)CO2 [Example 14, 10-fluoro-5-(1,2,3,6-tetrahydropyridin-4-yl)-4,6-dihydro-7-oxa-3,4-diazadibenzo[cd,f]azulene] | 0.18 µM | 0.02 µM | –
9 | CC[C@H]1c2c(C3=CCNCC3)[nH]c3nccc(c23)-c2cc(F)ccc2N1C [Example 142, (6S)-6-ethyl-10-fluoro-7-methyl-5-(1,2,3,6-tetrahydropyridin-4-yl)-6,7-dihydro-4H-3,4,7-triazadibenzo[cd,f]azulene] | 0.005 µM | 0.03 µM | –
10 | CN1Cc2c(C3=CCN(CC(=O)OC(C)(C)C)CC3)[nH]c3ncc(F)c(c23)-c2cc(F)ccc21 [Example 65, tert-butyl[4-(1,10-difluoro-7-methyl-6,7-dihydro-4H-3,4,7-triazadibenzo[cd,f]azulen-5-yl)-3,6-dihydropyridin-1(2H)-yl]acetate] | 0.14 µM | 0.1 µM | –
11 | CCC1c2c(C3=CCNCC3)[nH]c3nccc(c23)-c2cc(F)ccc2N1C (stereo not shown) [Example 9, 6-ethyl-10-fluoro-7-methyl-5-(1,2,3,6-tetrahydropyridin-4-yl)-6,7-dihydro-4H-3,4,7-triazadibenzo[cd,f]azulene dihydrochloride] | 0.01 µM | 0.048 µM | –
12 | CN(C)C(=O)CN1CC=C(c2[nH]c3ncc(F)c4c3c2CN(C)c2ccccc2-4)CC1 [Example 163, 2-[4-(1-fluoro-7-methyl-6,7-dihydro-4H-3,4,7-triazadibenzo[cd,f]azulen-5-yl)-3,6-dihydropyridin-1(2H)-yl]-N,N-dimethylacetamide] | 0.007 µM | 0.056 µM | –

Now from value to molecule, other results behind:

Row | IC50 (H929 cells; [1]) | IC50 (CDK9/Cyclin T1) | SMILES | IC50 (H929 cells; 24 hours at 37° C.)
13 | 0.44 µM | 0.088 µM | CN1Cc2c(C3=CCN(C4CCC(C(C#N)C(=O)O)CC4)CC3)[nH]c3nccc(c23)-c2cc(F)ccc21 (stereo not shown) [Example 191, cyano{4-[4-(10-fluoro-7-methyl-6,7-dihydro-4H-3,4,7-triazadibenzo[cd,f]azulen-5-yl)-3,6-dihydropyridin-1(2H)-yl]cyclohexyl}acetic acid] | –
14 | 0.66 µM | 0.041 µM | CN1Cc2c(C3=C[C@H]4COC(=O)N4CC3)[nH]c3nccc(c23)-c2cc(F)ccc21 [Example 152, (8aS)-7-(10-fluoro-7-methyl-6,7-dihydro-4H-3,4,7-triazadibenzo[cd,f]azulen-5-yl)-1,5,6,8a-tetrahydro[1,3]oxazolo[3,4-a]pyridin-3-one] | –
15 | 2.4 µM | 1.3 µM | CN(CC(O)CO)C(=O)CN1CC=C(c2[nH]c3nccc4c3c2CN(C)c2ccc(F)cc2-4)C(C)(C)C1 (stereo not shown) [Example 119, N-(2,3-dihydroxypropyl)-2-[4-(10-fluoro-7-methyl-6,7-dihydro-4H-3,4,7-triazadibenzo[cd,f]azulen-5-yl)-3,3-dimethyl-3,6-dihydropyridin-1(2H)-yl]-N-methylacetamide] | –
16 | 0.96 µM | 0.12 µM | CN(C)C(=O)C1CC=C(c2[nH]c3nccc4c3c2CN(C)c2ccc(F)cc2-4)CC1 (stereo not shown) [Example 50, 4-(10-fluoro-7-methyl-6,7-dihydro-4H-3,4,7-triazadibenzo[cd,f]azulen-5-yl)-N,N-dimethylcyclohex-3-ene-1-carboxamide] | –
17 | 0.58 µM | 0.42 µM | CN(C)C(=O)CN1CCC=C(c2[nH]c3nccc4c3c2CN(C)c2ccc(F)cc2-4)C1 [Example 97, 2-[5-(10-fluoro-7-methyl-6,7-dihydro-4H-3,4,7-triazadibenzo[cd,f]azulen-5-yl)-3,6-dihydropyridin-1(2H)-yl]-N,N-dimethylacetamide] | –
18 | 0.6 µM | 0.066 µM | CN1Cc2c(C3=CCN4C(=O)OC[C@H]4C3)[nH]c3nccc(c23)-c2cc(F)ccc21 [Example 153, (8aR)-7-(10-fluoro-7-methyl-6,7-dihydro-4H-3,4,7-triazadibenzo[cd,f]azulen-5-yl)-1,5,8,8a-tetrahydro[1,3]oxazolo[3,4-a]pyridin-3-one] | –
19 | 0.094 µM | 0.062 µM | CN1Cc2c(C3=CCN(CC(=O)N4CCC[C@@H]4CO)CC3)[nH]c3nccc(c23)-c2cc(F)ccc21 [Example 64, 2-[4-(10-fluoro-7-methyl-6,7-dihydro-4H-3,4,7-triazadibenzo[cd,f]azulen-5-yl)-3,6-dihydropyridin-1(2H)-yl]-1-[(2R)-2-(hydroxymethyl)pyrrolidin-1-yl]ethanone] | –
20 | 0.047 µM | 0.11 µM | CC1c2c(C3=CCN(S(C)(=O)=O)CC3)[nH]c3nccc(c23)-c2cc(F)ccc2N1C (stereo not shown) [Example 20, 10-fluoro-6,7-dimethyl-5-[1-(methylsulfonyl)-1,2,3,6-tetrahydropyridin-4-yl]-6,7-dihydro-4H-3,4,7-triazadibenzo[cd,f]azulene] | –
21 | 0.83 µM | 0.11 µM | CN1Cc2c(-c3ccc(S(C)(=O)=O)nc3)[nH]c3nccc(c23)-c2cc(F)ccc21 [Example 45, 10-fluoro-7-methyl-5-[6-(methylsulfonyl)pyridin-3-yl]-6,7-dihydro-4H-3,4,7-triazadibenzo[cd,f]azulene] | –
22 | 0.094 µM | 0.043 µM | CN(CCO)C(=O)CN1CC2C=C(c3[nH]c4nccc5c4c3CN(C)c3ccc(F)cc3-5)CC2C1 (stereo not shown) [Example 86, 2-[5-(10-fluoro-7-methyl-6,7-dihydro-4H-3,4,7-triazadibenzo[cd,f]azulen-5-yl)-3,3a,4,6a-tetrahydrocyclopenta[c]pyrrol-2(1H)-yl]-N-(2-hydroxyethyl)-N-methylacetamide] | –
23 | 0.021 µM | 0.089 µM | CN1Cc2c(C3=CCN(CC(=O)N4CC(CO)C4)CC3)[nH]c3ncc(F)c(c23)-c2cc(F)ccc21 [Example 74, 2-[4-(1,10-difluoro-7-methyl-6,7-dihydro-4H-3,4,7-triazadibenzo[cd,f]azulen-5-yl)-3,6-dihydropyridin-1(2H)-yl]-1-[3-(hydroxymethyl)azetidin-1-yl]ethanone] | –
24 | 0.03 µM | 0.062 µM | CN1Cc2c(C3=CC4CN(S(C)(=O)=O)CC4C3)[nH]c3nccc(c23)-c2cc(F)ccc21 (stereo not shown) [Example 78, 10-fluoro-7-methyl-5-[2-(methylsulfonyl)-1,2,3,3a,4,6a-hexahydrocyclopenta[c]pyrrol-5-yl]-6,7-dihydro-4H-3,4,7-triazadibenzo[cd,f]azulene] | –
25 | – | 0.078 µM | CN1CCc2c(C3=CCN(S(C)(=O)=O)CC3)[nH]c3nccc(c23)-c2cc(F)ccc21 [Example 128, 8-fluoro-5-methyl-2-[1-(methylsulfonyl)-1,2,3,6-tetrahydropyridin-4-yl]-1,3,4,5-tetrahydro-1,5,12-triazabenzo[4,5]cycloocta[1,2,3-cd]indene] | 0.15 µM
26 | 3.3 µM | 0.8 µM | CS(=O)(=O)N1CC=C(c2[nH]c3nccc4c3c2CN(CC2CCOCC2)c2ccc(F)cc2-4)CC1 [Example 7, 10-fluoro-5-[1-(methylsulfonyl)-1,2,3,6-tetrahydropyridin-4-yl]-7-(tetrahydro-2H-pyran-4-ylmethyl)-6,7-dihydro-4H-3,4,7-triazadibenzo[cd,f]azulene] | –
